Assay results reported in patent publication US20240239729A1, “Functionalization of Lightly Branched Olefin Oligomers” (priority 2021, published 2024).

Columns and labels:
Format in all cases: physicochemical
[1] = Solubility in water at 25° C. by visual observation; settings: 2-3 hours magnetic stirring
Procedure: Solubility measurements were conducted in water at 25° C. Solubility was determined through visual observation after 2-3 hours of magnetic stirring of surfactant solutions having variable concentrations.

[2] = Calcium tolerance (hard water tolerance), surfactant remaining in filtrate by HPLC-ELSD; settings: 25° C.; 450 ppm surfactant, 420 ppm cations (3:1 Ca2+:Mg2+), stood overnight, 0.22 μm filtrate
Procedure: Calcium tolerance was measured at 25° C. using the following procedure. A surfactant solution containing 450 ppm of alcohol sulfate surfactant and 420 ppm cations (3:1 Ca^2+:Mg^2+) was prepared and allowed to stand overnight. Crystals formed during this time. The supernatant liquid was removed and passed through a 0.22 μm filter to provide a filtrate. The filtrate was then analyzed for surfactant residue. Analysis of the surfactant and salt residue was performed using an Agilent 1100 HPLC combined with SEDEX 75 evaporative light scattering detector (ELSD) using the run conditions specified in Table 4 below. Peak height was utilized to analyze surfactant concentration. Some samples were repeated in triplicate. Calcium tolerance results are specified in Table 5 below.

[3] = Critical micelle concentration in water (Kruss K100 tensiometer)
Procedure: Critical micelle concentrations in water were measured using an A Kruss Laboratory K100 tensiometer. CMC values were determined using the K100 instrument's fully automated measurement method, as described further in the K100 instrument's operating manual.

| Structure (SMILES) | Solubility at 25° C., (Wt. %) [1] [% Wt. %] | Calcium tolerance (ppm surfactant remaining) [2] [ppm] | CMC [3] [g/g] |
| --- | --- | --- | --- |
| CCCCCCCCCCCCCOS(=O)(=O)[O-].[Na+] [Entry 5, Sodium n-Tridecyl Sulfate] | <0.5 | 11.2 | 0.001 |
| CCCC(C)CCCC(C)CCCOS(=O)(=O)O (stereo not shown) [Entry 8, 4,8-dimethylundecan-1-sulfate] | – | – | 0.00129 |
